The source made the active and inactive calls. How the calls were made is not given here.

Chain of Peptidyl-prolyl cis-trans isomerase FKBP1A (Homo sapiens) (P62942 whole entry, looked up): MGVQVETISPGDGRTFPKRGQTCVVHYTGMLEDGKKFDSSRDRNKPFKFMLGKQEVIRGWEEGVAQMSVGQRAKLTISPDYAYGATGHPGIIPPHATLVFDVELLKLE

This test has as its target Peptidyl-prolyl cis-trans isomerase FKBP1A (Homo sapiens) (UniProt P62942). The test can be described thus: small-molecule binding to FKBP12 – biophysical, NMR detection (AID 608). As to conditions: purified FKBP12.
Regarding `O=C1NNC(=O)C2C3c4ccccc4C(c4ccccc43)C12` (centres undefined), the Kd is > 4 mM (inactive).
Then `Cc1ccc(Cl)cc1NS(=O)(=O)N1CCOCC1`, with > 4 mM (inactive); and `CN1CCN(CC(=O)N2CCc3ccccc32)CC1`, with > 4 mM (inactive); and `Cc1ccc(/C=N/NC(N)=O)o1`, with > 4 mM (inactive).
Consider `Nc1nnc(SCc2cccnc2)s1`, for which the Kd is > 4 mM (inactive).
Then `Cn1c(CSc2nc3ccccc3s2)n[nH]c1=S`, with > 4 mM (inactive); and `CCC(CO)NC(=O)c1snnc1C` (centres undefined), with > 4 mM (inactive); and `CC(=O)Nc1ccc(C(=O)NC2=NCCS2)cc1`, with > 4 mM (inactive).
Consider `Cn1nc(C(=O)Nc2cccnc2)c2ccccc2c1=O`, for which the Kd was > 4 mM (inactive).
In the case of `NC(=O)CN1CCC(c2nc3ccccc3[nH]2)CC1` it was > 4 mM (inactive); in that of `CC(=O)NC(O)C(=O)c1ccccc1` (centres undefined), > 4 mM (inactive).
`N#Cc1cnn2c(C(F)(F)F)cc(C(F)(F)F)nc12`: the Kd is > 4 mM (inactive).
In the case of `COc1ccc(-c2coc3cc(OC(C)=O)cc(OC(C)=O)c3c2=O)cc1`, the Kd is > 4 mM (inactive).
Then `Nc1oncc1-c1ccccn1`, with > 4 mM (inactive).
In the case of `Nc1ncnc2c1ncn2C1C[C@H](O)[C@@H](CO)O1` (some centres undefined) it was > 4 mM (inactive); in that of `Nc1nc2ncc(=O)[nH]c2c(=O)[nH]1`, > 4 mM (inactive).
Then `CC(=O)N=c1cccc(NC(C)=O)n1O`, with > 4 mM (inactive); and `CNC(=O)Nc1ccc(C(=O)NC)cc1`, with > 4 mM (inactive).
`Cc1n[nH]c(C)c1N`: the Kd was > 4 mM (inactive).
Regarding `Cc1cc(Cl)ccc1OC(C)C(=O)N1CCOCC1` (centres undefined), the Kd entry was “inactive”.
Then `O=C1C2=C(SCCS2)C(=O)N1CCCO`, with 0.251 mM; and `COc1ccc(-c2coc3c(OC)c(OC)cc(O)c3c2=O)cc1`, with > 4 mM (inactive); and `O=C(Nc1cnc2ccccn2c1=O)c1ccc(F)cc1`, with > 4 mM (inactive).
In the case of `O=C1NC(=S)NC(=O)C1=Cc1ccccc1O` it was > 4 mM (inactive).
In the case of `CC(=O)C1CC[C@H]2C3CC[C@H]4C[C@H](O)CC[C@]4(C)C3CC[C@]12C` (some centres undefined) it was > 4 mM (inactive).
On to `Cc1cc(OCC(=O)N2CCOCC2)cc(C)c1Cl`, for which the Kd entry is “inactive”.
Turning to `O=C(c1ccccc1F)N1CCN(c2ccccc2)CC1`, the Kd is > 4 mM (inactive).
In the case of `Oc1cc(O)c2c(c1)O[C@H](c1ccc(O)c(O)c1)[C@@H](O)C2` it was > 4 mM (inactive).
Take `Cc1occc1C(=O)Nc1cc(C(C)(C)C)on1`: the Kd is > 4 mM (inactive).
As for `O=C(O[C@@H]1Cc2c(O)cc(O)cc2O[C@@H]1c1cc(O)c(O)c(O)c1)c1cc(O)c(O)c(O)c1`, the Kd is > 4 mM (inactive).
As for `C=Cc1c(C)c2cc3[nH]c(cc4nc(cc5nc(cc1[nH]2)C(C)=C5CCC(=O)O)C(CCC(=O)O)=C4C)c(C)c3C=C`, the Kd is > 4 mM (inactive).
In the case of `O=C1CSC(=Nc2cccc(C(=O)O)c2)N1` it was > 4 mM (inactive); in that of `Cc1ccc2[nH]c3nc(=S)[nH]nc3c2c1`, > 4 mM (inactive).
Then `CC(=O)Nc1c(Cl)cnn(-c2ccccc2)c1=O`, with > 4 mM (inactive); and `NC(=O)CSc1nc2ccccc2o1`, with > 4 mM (inactive); and `C[C@]12CCC(=O)C=C1CCC1C2C(=O)C[C@@]2(C)C1CC[C@]2(O)C(=O)CO` (some centres undefined), with > 4 mM (inactive).
Then `CCOC(=O)c1cnc2sccn2c1=O`, with > 4 mM (inactive); and `Cc1ccc(C(=O)N2CC(=O)NC(=O)C2)cc1`, with > 4 mM (inactive).
For the compound `CCOC(=O)C1CCN(Cc2ccccc2)CC1=O` (centres undefined), the Kd was > 4 mM (inactive).
In the case of `O=C1CCC(=O)N1c1cccc([N+](=O)[O-])c1` it was > 4 mM (inactive); in that of `O=C(O)c1cccnc1-c1nc2ccccc2s1`, > 4 mM (inactive).
In the case of `C/C1=C\CCC(=O)C2CC(C)(C)C2CC1` (centres undefined) it was > 4 mM (inactive).
`O=C(NC1=NCCS1)c1csc2ccccc12`: the Kd was > 4 mM (inactive).
In the case of `COc1cc(C(=S)N2CCCC2)cc(Cl)c1O` it was > 4 mM (inactive); in that of `COc1ccc(-c2nc3nc(C)cc(C)n3n2)cc1`, > 4 mM (inactive); in that of `O=c1[nH]cc(S(=O)(=O)Nc2ccccc2)c(=O)[nH]1`, > 4 mM (inactive).
Then `CN1C(=O)c2ccc(C(=O)NC3CCCCC3)cc2C1=O`, with > 4 mM (inactive).
In the case of `Nc1ncnc(NCCCO)c1[N+](=O)[O-]` it was > 4 mM (inactive); in that of `Cc1scc(C(=O)Nn2cnnc2)c1-c1ccccc1`, > 4 mM (inactive); in that of `Cc1cccc(NS(=O)(=O)c2cccs2)n1`, > 4 mM (inactive).
Take `COC(=O)[C@]1(C)CC[C@]2(C)CC[C@]3(C)C4=CCc5c(cc(O)c(O)c5C)[C@]4(C)CC[C@@]3(C)C2C1` (some centres undefined): the Kd is > 4 mM (inactive).
Then `O=c1ccc2c([nH]1)CCCC2`, with > 4 mM (inactive); and `COc1ccccc1NC(=O)c1ccc(C)s1`, with > 4 mM (inactive).
As for `OCc1sccc1-n1cccc1`, the Kd was > 4 mM (inactive).
In the case of `O=C1C2C3C=CC(C3)C2C(=O)N1c1ccccn1` (centres undefined) it was > 4 mM (inactive); in that of `Cc1n[nH]c(C)c1NC(=O)c1cccc(F)c1`, > 4 mM (inactive).
In the case of `O=S1(=O)CCC2CC=CCC21` (centres undefined) it was > 4 mM (inactive); in that of `Cc1[nH]c2ccccc2c1CN(C)C`, > 4 mM (inactive).
In the case of `CN(C)c1ccc(C2CC(=O)CC(=O)C2)cc1` it was > 4 mM (inactive); in that of `NC(=O)Cn1nc2c3c(cccc3c1=O)-c1ccccc1-2`, > 4 mM (inactive).
Turning to `Cc1noc(C)c1C(=O)NC1=NCCS1`, the Kd was > 4 mM (inactive).
In the case of `NC(=O)CCn1ncc2ccccc21` it was > 4 mM (inactive); in that of `NC1=NC(=O)/C(=C\c2ccccc2)S1`, > 4 mM (inactive); in that of `Nc1cccc2nsnc12`, > 4 mM (inactive).
In the case of `CS/C(N)=C\C(C)=O` it was > 4 mM (inactive).
In the case of `COc1cc(O)c(C(C)=O)c(OC)c1` it was > 4 mM (inactive); in that of `Cc1cc(NC(=O)CSc2ccnc(=O)[nH]2)no1`, > 4 mM (inactive).
On to `CSc1ccccc1NC(=O)c1ccncc1`, for which the Kd is > 4 mM (inactive).
In the case of `CC(=O)Nc1c(C#N)c(C(C)(C)C)cn1C` it was > 4 mM (inactive).
On to `Nn1c(CN2CCCCC2)nc2ccccc2c1=O`, for which the Kd was > 4 mM (inactive).
In the case of `COc1ccccc1-c1cn[nH]c(=S)n1` it was > 4 mM (inactive).
Then `COc1cc2cc3c4cc(OC)c(OC)cc4cc[n+]3c(C)c2cc1OC`, with > 4 mM (inactive); and `CC1(C)C2CC(=O)[C@]3(C)C(CC[C@@]4(C)[C@H](c5ccoc5)OC(=O)[C@H]5O[C@]543)[C@@]2(C)C(=O)C[C@H]1O` (some centres undefined), with > 4 mM (inactive).
In the case of `O=c1nc(N2CCOCC2)nc2n1CCO2` it was > 4 mM (inactive).

One may read the Kd as the concentration at which binding is half-saturated.
